From ChEMBL document CHEMBL1201862, “PubChem BioAssay data set” (2004)
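Dose response: 5 concentrations. Exposure: 48 h. Format: 96-well plates. Endpoint: linear interpolation; highest concentration if not reached. Here, GI50 denotes the concentration required for 50% inhibition of growth.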 Active and inactive are the calls of the source. Cut-off read from the data, not from the text of the source: active = GI50 up to about 1.1 µM and inactive = higher.

Assays:
Test in all cases: NCI-60 cell line screen, 48 h
DLD-1 = test system: DLD-1
DMS-114 = test system: DMS-114
KM-20L2 = test system: KM-20L2
LXFL 529 = test system: LXFL 529
M19-MEL = test system: M19-MEL
RXF 631 = test system: RXF 631
XF498 = test system: XF498
HOP-18 = test system: HOP-18
SNB-78 = test system: SNB-78

Row | SMILES | GI50 (DLD-1) | GI50 (DMS-114) | GI50 (KM-20L2) | GI50 (LXFL 529) | GI50 (M19-MEL) | GI50 (RXF 631) | GI50 (XF498) | GI50 (HOP-18) | GI50 (SNB-78)
1 | COC(=O)c1ccccc1OCc1cc(=O)oc2ccc(C)cc12 | 67.1 µM (inactive) | 89.3 µM (inactive) | 82.2 µM (inactive) | 85.7 µM (inactive) | > 100 µM (inactive) | > 100 µM (inactive) | 31.8 µM (inactive) |  | 
2 | COc1ccc(-c2onc(-c3c(C)cc(C)cc3C)c2C2=NCCCN2)cc1 | 78.3 µM (inactive) |  | 33.4 µM (inactive) | > 100 µM (inactive) | > 100 µM (inactive) | 44.4 µM (inactive) | 60 µM (inactive) | 2.1 µM (inactive) | 35.1 µM (inactive)
3 | O=C1[C@@H]2C(c3ccccc3[N+](=O)[O-])=NO[C@@H]2C(=O)N1c1ccc(Cc2ccc(N3C(=O)[C@H]4C(c5ccccc5[N+](=O)[O-])=NO[C@H]4C3=O)cc2)cc1 | > 100 µM (inactive) | > 100 µM (inactive) | > 100 µM (inactive) | > 100 µM (inactive) |  |  |  | > 100 µM (inactive) | > 100 µM (inactive)
4 | COc1ccc(CC(=O)NCCc2ccc(OC)c(OC)c2OC)cc1 | > 100 µM (inactive) | > 100 µM (inactive) | > 100 µM (inactive) | > 100 µM (inactive) | > 100 µM (inactive) | > 100 µM (inactive) | > 100 µM (inactive) | > 100 µM (inactive) | > 100 µM (inactive)
5 | CCOc1ccc(/N=C(/NC(=O)c2ccccc2)SC)cc1 | > 100 µM (inactive) | > 100 µM (inactive) | > 100 µM (inactive) | > 100 µM (inactive) | > 100 µM (inactive) |  |  | > 100 µM (inactive) | > 100 µM (inactive)
6 | C=C1CC2(OC1=O)c1ccccc1C=Cc1ccccc12 | 1.87 µM (inactive) | 7.76 µM (inactive) | 8.13 µM (inactive) | 2.92 µM (inactive) | 5.47 µM (inactive) | 9.2 µM (inactive) | 13.6 µM (inactive) | 14.3 µM (inactive) | 3.08 µM (inactive)
7 | C#CCN(C(=O)C(F)(F)F)c1ccc(C(=O)c2ccc(N(CC#C)C(=O)C(F)(F)F)cc2)cc1 | 37.6 µM (inactive) | 20.7 µM (inactive) | > 100 µM (inactive) | 27.7 µM (inactive) | 35.5 µM (inactive) |  |  |  | 52.4 µM (inactive)
8 | O=[N+]([O-])c1ccc(/C=N/C2CCCCC2)cc1 | > 100 µM (inactive) | > 100 µM (inactive) | > 100 µM (inactive) |  | > 100 µM (inactive) | > 100 µM (inactive) | > 100 µM (inactive) | > 100 µM (inactive) | > 100 µM (inactive)
9 | CCC(C)(O)c1cn(-c2cccc(S(=O)(=O)O)c2)nn1 (stereo not drawn) | > 100 µM (inactive) | > 100 µM (inactive) | > 100 µM (inactive) | > 100 µM (inactive) |  |  | > 100 µM (inactive) | > 100 µM (inactive) | > 100 µM (inactive)
10 | O=S1(=O)OCCOS(=O)(=O)C1(Cl)Cl | > 100 µM (inactive) | > 100 µM (inactive) |  | > 100 µM (inactive) | > 100 µM (inactive) | > 100 µM (inactive) | > 100 µM (inactive) |  | > 100 µM (inactive)
11 | Cc1cc(N(CCC#N)CCC#N)ccc1/C=C1N=C(/C=C/c2ccccc2)OC(=O)N\1 | > 100 µM (inactive) | > 100 µM (inactive) | > 100 µM (inactive) | > 100 µM (inactive) | > 100 µM (inactive) |  | > 100 µM (inactive) |  | 43.3 µM (inactive)
12 | COc1ccc(-c2nc(N)nc(-c3cc(C)ccc3O)c2Cl)cc1 | 39.9 µM (inactive) | 48.2 µM (inactive) | > 100 µM (inactive) | 33 µM (inactive) | 93.3 µM (inactive) | > 100 µM (inactive) | 35.6 µM (inactive) | > 100 µM (inactive) | 24.3 µM (inactive)
13 | CCO/C=C1\N=C(c2ccccc2Br)OC1=O | > 100 µM (inactive) | > 100 µM (inactive) | > 100 µM (inactive) | > 100 µM (inactive) | > 100 µM (inactive) |  | > 100 µM (inactive) |  | > 100 µM (inactive)
14 | Cn1c2c([N+](=O)[O-])cccc2c(=O)c2c(O)cc3c(c21)C=CC(C)(C)O3 | 24.8 µM (inactive) | 22.8 µM (inactive) | 17.7 µM (inactive) | 25.6 µM (inactive) |  | 33.7 µM (inactive) | 11.5 µM (inactive) | < 0.01 µM (active) | 38 µM (inactive)
15 | CCOc1ccc(NC(=O)CC2SC(Nc3ccc(C)cc3C)=NC2=O)cc1 (stereo not drawn) | > 100 µM (inactive) |  | > 100 µM (inactive) | 66.2 µM (inactive) | > 100 µM (inactive) |  | 50.4 µM (inactive) |  | > 100 µM (inactive)
16 | COC(=O)C(C(=O)C(=O)Nc1nnc(S)[nH]1)c1csc(N)n1 (stereo not drawn) | > 100 µM (inactive) |  | > 100 µM (inactive) | > 100 µM (inactive) | > 100 µM (inactive) | > 100 µM (inactive) | > 100 µM (inactive) | > 100 µM (inactive) | > 100 µM (inactive)
17 | COc1ccc(CCNCCCC2c3ccccc3-c3ccccc32)cc1OC | 16.1 µM (inactive) | 7.48 µM (inactive) | 3.45 µM (inactive) | 14.1 µM (inactive) | 11.1 µM (inactive) |  | 14.7 µM (inactive) | 16.8 µM (inactive) | 15.7 µM (inactive)
18 | COc1ccc(NC(=O)CCc2cc(C(C)(C)C)[nH]n2)cc1 |  |  | > 100 µM (inactive) | > 100 µM (inactive) | > 100 µM (inactive) | > 100 µM (inactive) | > 100 µM (inactive) | > 100 µM (inactive) | > 100 µM (inactive)
19 | COc1cc(/C=N\O[Si](C)(C)C(C)(C)C)ccc1O[Si](C)(C)C(C)(C)C | 89.9 µM (inactive) | 28.1 µM (inactive) | > 100 µM (inactive) | 70.1 µM (inactive) | 74.5 µM (inactive) | 30.1 µM (inactive) | 38.6 µM (inactive) | > 100 µM (inactive) | > 100 µM (inactive)
20 | CCOC(=O)CC1(C(=O)OCC)c2[nH]c3ccccc3c2CCN1Cc1ccccc1 (stereo not drawn) | 24.4 µM (inactive) | 18.3 µM (inactive) | 17.1 µM (inactive) | 25.4 µM (inactive) | 14.3 µM (inactive) |  | 24.2 µM (inactive) | 23 µM (inactive) | 40.7 µM (inactive)
21 | CN(C)[C@@H]1C(O)=C(C(=O)NCNCCCC(=O)O)C(=O)[C@@]2(O)C(O)=C3C(=O)c4c(O)cccc4[C@@](C)(O)[C@H]3C[C@@H]12 | > 100 µM (inactive) | > 100 µM (inactive) | > 100 µM (inactive) | > 100 µM (inactive) | > 100 µM (inactive) |  | > 100 µM (inactive) | > 100 µM (inactive) | > 100 µM (inactive)
22 | CNc1cccc(-c2cc(O)c3cc4c(cc3n2)OCO4)c1 | 0.181 µM (active) | 0.723 µM (active) |  | 0.119 µM (active) | 0.445 µM (active) |  | 3.82 µM (inactive) | 0.881 µM (active) | 0.318 µM (active)
23 | N#C/C(=C\c1ccc2[nH]ccc2c1)C(=O)c1ccc(O)c(O)c1 | > 100 µM (inactive) | 81.7 µM (inactive) | 61.5 µM (inactive) | > 100 µM (inactive) | > 100 µM (inactive) |  |  | 71.4 µM (inactive) | > 100 µM (inactive)
